Assay results from patent US11596692B1 (Incyte Corporation, priority 2018, dated 2023).
Read-outs that look alike come from different tables or passages of the source.

System: IRF3
Assay: IRF3 activation assay in THP-1 Dual cells
Format: cell-based
Conditions: Homo sapiens, read-out: THP1 IRF3 EC50
Method in brief: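 THP-1 Dual cells (100,000/well) were treated with serially diluted compound for 24 h at 37° C, 5% CO2. IRF3 reporter activity in supernatant was read with QUANTI-Blue as absorbance at 620-655 nm after 2 h, with untreated cells as negative control. EC50 came from fitting percent control activity against log concentration.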

EC50 (THP-1, Table 4A) [nM]	EC50 (THP-1, Table 4B) [nM]	EC50 (THP-1, Table 4C) [nM]	Structure (SMILES)
≤ 100	< 200	≤ 50	CCn1nc(C)cc1C(=O)Nc1nc2cc(C(N)=O)cc(C)c2n1C/C=C/Cn1c2nc(-c3cc(C)nn3CC)ncc2c2cc(C(N)=O)cc(OCCCO)c21 [Example S13, (E)-9-(4-(5-carbamoyl-2-(1-ethyl-3-methyl-1H-pyrazole-5-carboxamido)-7-methyl-1H-benzo[d]imidazol-1-yl)but-2-enyl)-2-(1-ethyl-3-methyl-1H-pyrazol-5-yl)-8-(3-hydroxypropoxy)-9H-pyrimido[4,5-b]indole-6-carboxamide]
–	–	≤ 50	CCn1nc(C)cc1C(=O)Nc1nc2cc(C(N)=O)cc(OCCCOC)c2n1C/C=C/Cn1c2nc(-c3cc(C)nn3CC)ncc2c2cc(C(N)=O)cc(OCCCNC(=O)CCCC(=O)O)c21 [Example S55, (E)-5-(3-(6-carbamoyl-9-(4-(5-carbamoyl-2-(1-ethyl-3-methyl-1H-pyrazole-5-carboxamido)-7-(3-methoxypropoxy)-1H-benzo[d]imidazol-1-yl)but-2-enyl)-2-(1-ethyl-3-methyl-1H-pyrazol-5-yl)-9H-pyrimido[4,5-b]indol-8-yloxy)propylamino)-5-oxopentanoic acid]
500 to 1000	< 1000	500 to 1000	CCn1nc(C)cc1C(=O)Nc1nc2cc(C(N)=O)cc(OC)c2n1C/C=C/Cn1c2ccc(C(N)=O)cc2c2cnc(-c3cc(C)nn3CC)nc21 [Example S4, (E)-9-(4-(5-carbamoyl-2-(1-ethyl-3-methyl-1H-pyrazole-5-carboxamido)-7-methoxy-1H-benzo[d]imidazol-1-yl)but-2-enyl)-2-(1-ethyl-3-methyl-1H-pyrazol-5-yl)-9H-pyrimido[4,5-d]indole-6-carboxamide]
≤ 100	–	–	CCn1nc(C)cc1C(=O)Nc1nc2cc(C(N)=O)cc(OC)c2n1C/C=C/Cn1c(NC(=O)c2cc(C)nn2CC)nc2cc(C(N)=O)cc(OCCCNC(C)=O)c21 [Example S33, (E)-7-(3-acetamidopropoxy)-1-(4-(5-carbamoyl-2-(1-ethyl-3-methyl-1H-pyrazole-5-carboxamido)-7-methoxy-1H-benzo[d]imidazol-1-yl)but-2-en-1-yl)-2-(1-ethyl-3-methyl-1H-pyrazole-5-carboxamido)-1H-benzo[d]imidazole-5-carboxamide]
–	–	≤ 50	CCn1nc(C)cc1C(=O)Nc1nc2cc(C(N)=O)cc(OCCCO)c2n1C/C=C/Cn1c2nc(-c3cc(C)nn3CC)ncc2c2cc(C(N)=O)cc(OCCCNC(=O)CCCC(=O)O)c21 [Example S53, (E)-5-(3-(6-carbamoyl-9-(4-(5-carbamoyl-2-(1-ethyl-3-methyl-1H-pyrazole-5-carboxamido)-7-(3-hydroxypropoxy)-1H-benzo[d]imidazol-1-yl)but-2-enyl)-2-(1-ethyl-3-methyl-1H-pyrazol-5-yl)-9H-pyrimido[4,5-b]indol-8-yloxy)propylamino)-5-oxopentanoic acid]
≤ 100	–	–	CCn1nc(C)cc1C(=O)Nc1nc2cc(C(N)=O)cc(OCCCOC(=O)NCCC(=O)O)c2n1C/C=C/Cn1c(NC(=O)c2cc(C)nn2CC)nc2cc(C(N)=O)c3ccoc3c21 [Example S66, (E)-3-(((3-((5-carbamoyl-1-(4-(5-carbamoyl-2-(1-ethyl-3-methyl-1H-pyrazole-5-carboxamido)-1H-benzofuro[6,7-d]imidazol-1-yl)but-2-en-1-yl)-2-(1-ethyl-3-methyl-1H-pyrazole-5-carboxamido)-1H-benzo[d]imidazol-7-yl)oxy)propoxy)carbonyl)amino)propanoic acid]
500 to 1000	< 1000	500 to 1000	CCn1nc(C)cc1C(=O)Nc1nc2cc(C(N)=O)cc(C)c2n1C/C=C/Cn1c2ccc(C(N)=O)cc2c2cnc(-c3cc(C)nn3CC)c(C#N)c21 [Example S26, (E)-5-(4-(5-carbamoyl-2-(1-ethyl-3-methyl-1H-pyrazole-5-carboxamido)-7-methyl-1H-benzo[d]imidazol-1-yl)but-2-en-1-yl)-4-cyano-3-(1-ethyl-3-methyl-1H-pyrazol-5-yl)-5H-pyrido[4,3-b]indole-8-carboxamide]
500 to 1000	< 1000	500 to 1000	CCc1nn(C)cc1-c1ncc2c3cc(C(N)=O)ccc3n(C/C=C/Cn3c(NC(=O)c4cc(C)nn4CC)nc4cc(C(N)=O)cc(C)c43)c2n1 [Example S8, (E)-9-(4-(5-carbamoyl-2-(1-ethyl-3-methyl-1H-pyrazole-5-carboxamido)-7-methyl-1H-benzo[d]imidazol-1-yl)but-2-enyl)-2-(3-ethyl-1-methyl-1H-pyrazol-4-yl)-9H-pyrimido[4,5-b]indole-6-carboxamide]
≤ 100	< 200	≤ 50	CCn1nc(C)cc1C(=O)Nc1nc2cc(C(N)=O)cc(OCCCOC(=O)c3cc(C)nn3CC)c2n1C/C=C/Cn1c2nc(-c3cc(C)nn3CC)ncc2c2cc(C(N)=O)cc(OC)c21 [Example S15, (E)-3-((5-carbamoyl-1-(4-(6-carbamoyl-2-(1-ethyl-3-methyl-1H-pyrazol-5-yl)-8-methoxy-9H-pyrimido[4,5-b]indol-9-yl)but-2-en-1-yl)-2-(1-ethyl-3-methyl-1H-pyrazole-5-carboxamido)-1H-benzo[d]imidazol-7-yl)oxy)propyl 1-ethyl-3-methyl-1H-pyrazole-5-carboxylate]
≤ 100	< 200	≤ 50	CCn1nc(C)cc1C(=O)Nc1nc2cc(C(N)=O)cc(OCCCOC(=O)c3cc(C)nn3CC)c2n1C/C=C/Cn1c2ccc(C(N)=O)cc2c2cnc(-c3cc(C)nn3CC)nc21 [Example S17, (E)-3-((5-carbamoyl-1-(4-(6-carbamoyl-2-(1-ethyl-3-methyl-1H-pyrazol-5-yl)-9H-pyrimido[4,5-b]indol-9-yl)but-2-en-1-yl)-2-(1-ethyl-3-methyl-1H-pyrazole-5-carboxamido)-1H-benzo[d]imidazol-7-yl)oxy)propyl 1-ethyl-3-methyl-1H-pyrazole-5-carboxylate]
≤ 100	< 200	≤ 50	CCCn1nc(C)cc1-c1ncc2c3cc(C(N)=O)ccc3n(C/C=C/Cn3c(NC(=O)c4cc(C)nn4CC)nc4cc(C(N)=O)cc(C)c43)c2n1 [Example S6, (E)-9-(4-(5-carbamoyl-2-(1-ethyl-3-methyl-1H-pyrazole-5-carboxamido)-7-methyl-1H-benzo[d]imidazol-1-yl)but-2-enyl)-2-(3-methyl-1-propyl-1H-pyrazol-5-yl)-9 H-pyrimido[4,5-b]indole-6-carboxamide]
100 to 500	< 1000	200 to 500	CCn1nc(C)cc1C(=O)Nc1nc2cc(C(N)=O)cc(C)c2n1C/C=C/Cn1c2ccc(C(N)=O)cc2c2cnc(-c3cc(C(F)(F)F)nn3CC)nc21 [Example S9, (E)-9-(4-(5-carbamoyl-2-(1-ethyl-3-methyl-1H-pyrazole-5-carboxamido)-7-methyl-1H-benzo[d]imidazol-1-yl)but-2-enyl)-2-(1-ethyl-3-(trifluoromethyl)-1H-pyrazol-5-yl)-9H-pyrimido[4,5-b]indole-6-carboxamide]
–	–	≤ 50	CCn1nc(C)cc1C(=O)Nc1nc2cc(C(N)=O)cc(OCCO)c2n1C/C=C/Cn1c2nc(-c3cc(C)nn3CC)ncc2c2cc(C(N)=O)cc(OCCCOC)c21 [Example S41, (E)-9-(4-(5-carbamoyl-2-(1-ethyl-3-methyl-1H-pyrazole-5-carboxamido)-7-(2-hydroxyethoxy)-1H-benzo[d]imidazol-1-yl)but-2-en-1-yl)-2-(1-ethyl-3-methyl-1H-pyrazol-5-yl)-8-(3-methoxypropoxy)-9H-pyrimido[4,5-b]indole-6-carboxamide]
–	–	50 to 200	CCn1nc(C)cc1C(=O)Nc1nc2cc(C(N)=O)cc(OCCCOC)c2n1C/C=C/Cn1c2nc(-c3cc(C)nn3CC)ncc2c2cc(C(N)=O)cc(OCCCOC(=O)NCCC(=O)O)c21 [Example S57, (E)-3-((3-(6-carbamoyl-9-(4-(5-carbamoyl-2-(1-ethyl-3-methyl-1H-pyrazole-5-carboxamido)-7-(3-methoxypropoxy)-1H-benzo[d]imidazol-1-yl)but-2-enyl)-2-(1-ethyl-3-methyl-1H-pyrazol-5-yl)-9H-pyrimido[4,5-b]indol-8-yloxy)propoxy)carbonylamino)propanoic acid]
100 to 500	< 200	50 to 200	CCn1nc(C)cc1C(=O)Nc1nc2cc(C(N)=O)cc(C)c2n1C/C=C/Cn1c2ccc(C(N)=O)cc2c2cnc(-c3cc(C)nn3CC)c(F)c21 [Example S23, (E)-5-(4-(5-carbamoyl-2-(1-ethyl-3-methyl-1H-pyrazole-5-carboxamido)-7-methyl-1H-benzo[d]imidazol-1-yl)but-2-en-1-yl)-3-(1-ethyl-3-methyl-1H-pyrazol-5-yl)-4-fluoro-5H-pyrido[4,3-b]indole-8-carboxamide]
≤ 100	< 200	≤ 50	CCn1nc(C)cc1C(=O)Nc1nc2cc(C(N)=O)cc(OCCCOC(=O)c3cc(C)nn3CC)c2n1C/C=C/Cn1c2nc(-c3cc(C)nn3CC)ncc2c2cc(C(N)=O)cc(OCCCOC)c21 [Example S21, (E)-3-((5-carbamoyl-1-(4-(6-carbamoyl-2-(1-ethyl-3-methyl-1H-pyrazol-5-yl)-8-(3-methoxypropoxy)-9H-pyrimido[4,5-b]indol-9-yl)but-2-en-1-yl)-2-(1-ethyl-3-methyl-1H-pyrazole-5-carboxamido)-1H-benzo[d]imidazol-7-yl)oxy)propyl 1-ethyl-3-methyl-1H-pyrazole-5-carboxylate]
–	–	50 to 200	CCn1nc(C)cc1C(=O)Nc1nc2cc(C(N)=O)cc(OC)c2n1C/C=C/Cn1c2nc(-c3cc(C)nn3CC)ncc2c2cc(C(N)=O)cc(OCCC3CCN(CCCC(=O)O)CC3)c21 [Example S60, (E)-4-(4-(2-(6-carbamoyl-9-(4-(5-carbamoyl-2-(1-ethyl-3-methyl-1H-pyrazole-5-carboxamido)-7-methoxy-1H-benzo[d]imidazol-1-yl)but-2-enyl)-2-(1-ethyl-3-methyl-1H-pyrazol-5-yl)-9H-pyrimido[4,5-b]indol-8-yloxy)ethyl)piperidin-1-yl)butanoic acid]
